Source: patent US10696707B2, “Polyene macrolide derivative” (Shionogi & Co., Ltd., priority 2014, dated 2020)
≈ marks a conversion by molar mass, not a printed value. Like-named read-outs stand apart in the source and are kept apart here.

What was measured:
Type in all cases: cell-based
C. albicans ATCC90028 = assay: Antifungal activity test, MIC by broth microdilution (CLSI M27-A3); conditions: C. albicans ATCC90028, 35° C., 24-48 hours
Description: (§1) The Minimum Inhibitory Concentration (MIC) values of the present compound against yeast and filamentous fungi were determined by broth microdilution assay according to the Clinical Laboratory Standards Institute (CLSI) guidelines outlined in documents M27-A3 and M38-A2. The medium used in the assay consisted of RPMI1640 (with glutamine, without bicarbonate) with 2% glucose and 0.165 mol/L morpholinepropanesulfonic acid (MOPS) with pH adjusted to 7.0 using 1 mol/L sodium hydroxide. The present compound was dissolved in dimethyl sulfoxide (DMSO). A series of two-fold dilutions were prepared in DMSO, and then 2 μL of the diluted compound was added to each well in 96-well sterile plates. Each inoculum was prepared by diluting a suspension of Candida spp. or a conidia suspension of Aspergillus spp. suspended in sterile saline solution, and then 200 μL was added to each well to a predetermined concentration using RPMI/MOPS (final concentration for each solution: approximately 1×10^3 cells/mL and approximately 1×10^4 CFU/mL). Plates of Candida spp. and Aspergillus spp. were incubated at 35° C. for 24-48 hours. The MIC was defined as the lowest concentration giving 100% inhibition compared to the growth control.

A. flavus ATCC204304 = assay: Antifungal activity test, MIC by broth microdilution (CLSI M38-A2); conditions: A. flavus ATCC204304, 35° C., 24-48 hours
Description: as §1

A. fumigatus ATCC204305 = assay: as above; conditions: A. fumigatus ATCC204305, 35° C., 24-48 hours
Description: as §1

[1] = Candida albicans, broth microdilution, 100% inhibition, read-out: MIC
[2] = Aspergillus flavus, broth microdilution, 100% inhibition, read-out: MIC
[3] = Aspergillus fumigatus, broth microdilution, 100% inhibition, read-out: MIC
[4] = broth microdilution, 100% inhibition
[5] = lowest concentration giving 100% inhibition

SMILES	MIC (C. albicans ATCC90028; [4])	MIC (A. flavus ATCC204304; [4])	MIC (A. fumigatus ATCC204305; [4])	other results
C[C@@H]1[C@H](O)[C@@H](C)/C=C/C=C/C=C/C=C/C=C/C=C/C=C/[C@H](O[C@@H]2O[C@H](C)[C@@H](O)[C@H](NC(=N)N)[C@@H]2O)C[C@@H]2O[C@](O)(C[C@@H](O)C[C@@H](O)[C@H](O)CC[C@@H](O)C[C@@H](O)CC(=O)O[C@H]1C)C[C@H](O)[C@H]2NC(=O)NNC(=O)[C@H](O)CO [I-367]				MIC (C. albicans ATCC90028; Candida albicans, lowest concentration giving 100% inhibition, read-out: MIC): 0.25 µg/mL (≈ 0.231 µM); MIC (A. flavus ATCC204304; Aspergillus flavus, lowest concentration giving 100% inhibition, read-out: MIC): 0.5 µg/mL (≈ 0.462 µM); MIC (A. fumigatus ATCC204305; Aspergillus fumigatus, lowest concentration giving 100% inhibition, read-out: MIC): 1 µg/mL (≈ 0.923 µM)
CONC(=O)N[C@H]1[C@@H]2C[C@@H](O[C@@H]3O[C@H](C)[C@@H](O)[C@H](N)[C@@H]3O)/C=C/C=C/C=C/C=C/C=C/C=C/C=C/[C@H](C)[C@@H](O)[C@@H](C)[C@H](C)OC(=O)C[C@H](O)C[C@H](O)CC[C@@H](O)[C@H](O)C[C@H](O)C[C@](O)(C[C@@H]1O)O2 [I-59]				MIC (C. albicans ATCC90028; [1]): 0.25 µg/mL (≈ 0.258 µM); MIC (A. flavus ATCC204304; [2]): 1 µg/mL (≈ 1.03 µM); MIC (A. fumigatus ATCC204305; [3]): 1 µg/mL (≈ 1.03 µM)
C[C@@H]1[C@H](O)[C@@H](C)/C=C/C=C/C=C/C=C/C=C/C=C/C=C/[C@H](O[C@@H]2O[C@H](C)[C@@H](O)[C@H](N)[C@@H]2O)C[C@@H]2O[C@](O)(C[C@@H](O)C[C@@H](O)[C@H](O)CC[C@@H](O)C[C@@H](O)CC(=O)O[C@H]1C)C[C@H](O)[C@H]2NC(=O)NC[C@@H](O)CO [I-119]	0.25 µg/mL (≈ 0.247 µM)	0.5 µg/mL (≈ 0.494 µM)	1 µg/mL (≈ 0.988 µM)	
C[C@@H]1[C@H](O)[C@@H](C)/C=C/C=C/C=C/C=C/C=C/C=C/C=C/[C@H](O[C@@H]2O[C@H](C)[C@@H](O)[C@H](N)[C@@H]2O)C[C@@H]2O[C@](O)(C[C@@H](O)C[C@@H](O)[C@H](O)CC[C@@H](O)C[C@@H](O)CC(=O)O[C@H]1C)C[C@H](O)[C@H]2NC(=O)NCC1(CO)COC1 [I-193]	0.25 µg/mL (≈ 0.241 µM)	0.5 µg/mL (≈ 0.482 µM)	1 µg/mL (≈ 0.963 µM)	
C[C@@H]1[C@H](O)[C@@H](C)/C=C/C=C/C=C/C=C/C=C/C=C/C=C/[C@H](O[C@@H]2O[C@H](C)[C@@H](O)[C@H](NC(=N)N)[C@@H]2O)C[C@@H]2O[C@](O)(C[C@@H](O)C[C@@H](O)[C@H](O)CC[C@@H](O)C[C@@H](O)CC(=O)O[C@H]1C)C[C@H](O)[C@H]2NC(=O)NNC(N)=O [I-330]				MIC (C. albicans ATCC90028; [5]): 0.25 µg/mL (≈ 0.241 µM); MIC (A. flavus ATCC204304; [5]): 1 µg/mL (≈ 0.963 µM); MIC (A. fumigatus ATCC204305; [5]): 1 µg/mL (≈ 0.963 µM)
C[C@@H]1[C@H](O)[C@@H](C)/C=C/C=C/C=C/C=C/C=C/C=C/C=C/[C@H](O[C@@H]2O[C@H](C)[C@@H](O)[C@H](N)[C@@H]2O)C[C@@H]2O[C@](O)(C[C@@H](O)C[C@@H](O)[C@H](O)CC[C@@H](O)C[C@@H](O)CC(=O)O[C@H]1C)C[C@H](O)[C@H]2NC(=O)NCCNC(=N)N [I-67]	0.25 µg/mL (≈ 0.244 µM)	1 µg/mL (≈ 0.977 µM)	1 µg/mL (≈ 0.977 µM)	
C[C@@H]1[C@H](O)[C@@H](C)/C=C/C=C/C=C/C=C/C=C/C=C/C=C/[C@H](O[C@@H]2O[C@H](C)[C@@H](O)[C@H](N)[C@@H]2O)C[C@@H]2O[C@](O)(C[C@@H](O)C[C@@H](O)[C@H](O)CC[C@@H](O)C[C@@H](O)CC(=O)O[C@H]1C)C[C@H](O)[C@H]2NC(=O)N(O)C[C@H](O)CO [I-275]	0.5 µg/mL (≈ 0.486 µM)	1 µg/mL (≈ 0.973 µM)	0.5 µg/mL (≈ 0.486 µM)	
C[C@@H]1[C@H](O)[C@@H](C)/C=C/C=C/C=C/C=C/C=C/C=C/C=C/[C@H](O[C@@H]2O[C@H](C)[C@@H](O)[C@H](N)[C@@H]2O)C[C@@H]2O[C@](O)(C[C@@H](O)C[C@@H](O)[C@H](O)CC[C@@H](O)C[C@@H](O)CC(=O)O[C@H]1C)C[C@H](O)[C@H]2NC(=O)N1C[C@@H](O)[C@H](O)C1 [I-260]				MIC (C. albicans ATCC90028; [1]): 0.5 µg/mL (≈ 0.488 µM); MIC (A. flavus ATCC204304; [2]): 0.5 µg/mL (≈ 0.488 µM); MIC (A. fumigatus ATCC204305; [3]): 1 µg/mL (≈ 0.976 µM)
C[C@@H]1[C@H](O)[C@@H](C)/C=C/C=C/C=C/C=C/C=C/C=C/C=C/[C@H](O[C@@H]2O[C@H](C)[C@@H](O)[C@H](N)[C@@H]2O)C[C@@H]2O[C@](O)(C[C@@H](O)C[C@@H](O)[C@H](O)CC[C@@H](O)C[C@@H](O)CC(=O)O[C@H]1C)C[C@H](O)[C@H]2NC(=O)NCC(N)=O [I-90]	0.25 µg/mL (≈ 0.251 µM)	0.5 µg/mL (≈ 0.502 µM)	0.5 µg/mL (≈ 0.502 µM)	
C[C@@H]1[C@H](O)[C@@H](C)/C=C/C=C/C=C/C=C/C=C/C=C/C=C/[C@H](O[C@@H]2O[C@H](C)[C@@H](O)[C@H](NC(=O)CN(C)C)[C@@H]2O)C[C@@H]2O[C@](O)(C[C@@H](O)C[C@@H](O)[C@H](O)CC[C@@H](O)C[C@@H](O)CC(=O)O[C@H]1C)C[C@H](O)[C@H]2NC(N)=O [I-325]				MIC (C. albicans ATCC90028; [5]): 0.25 µg/mL (≈ 0.244 µM); MIC (A. flavus ATCC204304; [5]): 0.5 µg/mL (≈ 0.489 µM); MIC (A. fumigatus ATCC204305; [5]): 1 µg/mL (≈ 0.977 µM)
C[C@@H]1[C@H](O)[C@@H](C)/C=C/C=C/C=C/C=C/C=C/C=C/C=C/[C@H](O[C@@H]2O[C@H](C)[C@@H](O)[C@H](N)[C@@H]2O)C[C@@H]2O[C@](O)(C[C@@H](O)C[C@@H](O)[C@H](O)CC[C@@H](O)C[C@@H](O)CC(=O)O[C@H]1C)C[C@H](O)[C@H]2NC(=O)NC[C@H](N)CO [I-162]	0.25 µg/mL (≈ 0.247 µM)	1 µg/mL (≈ 0.989 µM)	1 µg/mL (≈ 0.989 µM)	
C[C@@H]1[C@H](O)[C@@H](C)/C=C/C=C/C=C/C=C/C=C/C=C/C=C/[C@H](O[C@@H]2O[C@H](C)[C@@H](O)[C@H](N)[C@@H]2O)C[C@@H]2O[C@](O)(C[C@@H](O)C[C@@H](O)[C@H](O)CC[C@@H](O)C[C@@H](O)CC(=O)O[C@H]1C)C[C@H](O)[C@H]2NC(=O)NCC1CN(CCO)C1 [I-158]	0.25 µg/mL (≈ 0.238 µM)	1 µg/mL (≈ 0.951 µM)	1 µg/mL (≈ 0.951 µM)	
C[C@@H]1[C@H](O)[C@@H](C)/C=C/C=C/C=C/C=C/C=C/C=C/C=C/[C@H](O[C@@H]2O[C@H](C)[C@@H](O)[C@H](NC(=N)N)[C@@H]2O)C[C@@H]2O[C@](O)(C[C@@H](O)C[C@@H](O)[C@H](O)CC[C@@H](O)C[C@@H](O)CC(=O)O[C@H]1C)C[C@H](O)[C@H]2NC(=O)NCC(N)=O [I-346]				MIC (C. albicans ATCC90028; [5]): 0.5 µg/mL (≈ 0.482 µM); MIC (A. flavus ATCC204304; [5]): 0.5 µg/mL (≈ 0.482 µM); MIC (A. fumigatus ATCC204305; [5]): 1 µg/mL (≈ 0.964 µM)
C[C@@H]1[C@H](O)[C@@H](C)/C=C/C=C/C=C/C=C/C=C/C=C/C=C/[C@H](O[C@@H]2O[C@H](C)[C@@H](O)[C@H](N)[C@@H]2O)C[C@@H]2O[C@](O)(C[C@@H](O)C[C@@H](O)[C@H](O)CC[C@@H](O)C[C@@H](O)CC(=O)O[C@H]1C)C[C@H](O)[C@H]2NC(=O)N1C[C@H](O)CC1C(=O)O (stereo partly drawn) [I-230]	0.5 µg/mL (≈ 0.475 µM)	0.5 µg/mL (≈ 0.475 µM)	1 µg/mL (≈ 0.95 µM)	
C[C@@H]1[C@H](O)[C@@H](C)/C=C/C=C/C=C/C=C/C=C/C=C/C=C/[C@H](O[C@@H]2O[C@H](C)[C@@H](O)[C@H](N)[C@@H]2O)C[C@@H]2O[C@](O)(C[C@@H](O)C[C@@H](O)[C@H](O)CC[C@@H](O)C[C@@H](O)CC(=O)O[C@H]1C)C[C@H](O)[C@H]2NC(=O)NC1CN(CCO)C1 [I-165]	0.25 µg/mL (≈ 0.241 µM)	1 µg/mL (≈ 0.964 µM)	1 µg/mL (≈ 0.964 µM)	
C[C@@H]1[C@H](O)[C@@H](C)/C=C/C=C/C=C/C=C/C=C/C=C/C=C/[C@H](O[C@@H]2O[C@H](C)[C@@H](O)[C@H](N)[C@@H]2O)C[C@@H]2O[C@](O)(C[C@@H](O)C[C@@H](O)[C@H](O)CC[C@@H](O)C[C@@H](O)CC(=O)O[C@H]1C)C[C@H](O)[C@H]2NC(=O)N1CC(N(C)C)C1 [I-189]	0.25 µg/mL (≈ 0.245 µM)	0.5 µg/mL (≈ 0.49 µM)	0.5 µg/mL (≈ 0.49 µM)	
CC1C=CC=CC=CC=CC=CC=CC=CC(OC2OC(C)C(O)C(N)C2O)CC2OC(O)(CC(O)CC(O)C(O)CCC(O)CC(O)CC(=O)OC(C)C(C)C1O)CC(O)C2NC(=O)NCC(N)CCO (stereo not drawn) [I-163]	0.25 µg/mL (≈ 0.244 µM)	1 µg/mL (≈ 0.975 µM)	1 µg/mL (≈ 0.975 µM)	
CONC(=O)N[C@H]1[C@@H]2C[C@@H](O[C@@H]3O[C@H](C)[C@@H](O)[C@H](NC(=N)N)[C@@H]3O)/C=C/C=C/C=C/C=C/C=C/C=C/C=C/[C@H](C)[C@@H](O)[C@@H](C)[C@H](C)OC(=O)C[C@H](O)C[C@H](O)CC[C@@H](O)[C@H](O)C[C@H](O)C[C@](O)(C[C@@H]1O)O2 [I-331]				MIC (C. albicans ATCC90028; [5]): 0.25 µg/mL (≈ 0.247 µM); MIC (A. flavus ATCC204304; [5]): 1 µg/mL (≈ 0.99 µM); MIC (A. fumigatus ATCC204305; [5]): 1 µg/mL (≈ 0.99 µM)
CNC(=O)N[C@H]1[C@@H]2C[C@@H](O[C@@H]3O[C@H](C)[C@@H](O)[C@H](N(CCCN)CCCN)[C@@H]3O)/C=C/C=C/C=C/C=C/C=C/C=C/C=C/[C@H](C)[C@@H](O)[C@@H](C)[C@H](C)OC(=O)C[C@H](O)C[C@H](O)CC[C@@H](O)[C@H](O)C[C@H](O)C[C@](O)(C[C@@H]1O)O2 [I-383]				MIC (C. albicans ATCC90028; [5]): 0.25 µg/mL (≈ 0.234 µM); MIC (A. flavus ATCC204304; [5]): 1 µg/mL (≈ 0.938 µM); MIC (A. fumigatus ATCC204305; [5]): 1 µg/mL (≈ 0.938 µM)
